pIC50: −log10 of the molar value. Several values for one entry are separate records, joined by “and”; a condition that tells them apart may be missing. Identical values can stand only once.
Target: T1, human kinase Mps-1 (Homo sapiens, UniProt P33981)
T1 construct: N-terminally GST-tagged human full length recombinant Mps-1 kinase; GST (N); purchased Invitrogen, Karslruhe, Germany PV4071
T1 sequence (P33981 1-857): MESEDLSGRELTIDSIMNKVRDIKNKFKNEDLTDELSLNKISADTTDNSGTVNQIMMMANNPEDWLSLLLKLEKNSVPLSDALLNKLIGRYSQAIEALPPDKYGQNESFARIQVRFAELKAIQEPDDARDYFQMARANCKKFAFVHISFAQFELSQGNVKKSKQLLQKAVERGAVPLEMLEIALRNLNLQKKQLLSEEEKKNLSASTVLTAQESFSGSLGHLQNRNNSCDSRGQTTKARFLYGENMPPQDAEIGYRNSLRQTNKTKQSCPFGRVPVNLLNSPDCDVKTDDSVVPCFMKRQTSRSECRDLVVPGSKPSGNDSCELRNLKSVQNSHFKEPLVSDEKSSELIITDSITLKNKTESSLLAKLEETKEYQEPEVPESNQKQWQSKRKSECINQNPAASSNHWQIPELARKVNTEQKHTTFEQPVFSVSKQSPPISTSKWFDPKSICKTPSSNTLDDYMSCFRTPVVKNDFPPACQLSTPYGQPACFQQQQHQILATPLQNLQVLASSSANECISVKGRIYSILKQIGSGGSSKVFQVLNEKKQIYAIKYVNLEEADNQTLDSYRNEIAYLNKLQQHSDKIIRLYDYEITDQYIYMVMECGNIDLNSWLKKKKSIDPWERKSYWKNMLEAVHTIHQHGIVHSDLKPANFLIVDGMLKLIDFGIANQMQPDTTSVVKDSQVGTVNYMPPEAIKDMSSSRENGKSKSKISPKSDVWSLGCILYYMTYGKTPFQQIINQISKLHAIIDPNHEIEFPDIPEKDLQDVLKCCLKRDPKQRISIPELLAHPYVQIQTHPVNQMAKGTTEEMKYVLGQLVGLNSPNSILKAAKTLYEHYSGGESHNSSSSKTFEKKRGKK
Assay: Mps-1 kinase assay (TR-FRET)
Assay type: biochemical
Settings: Mps-1 TR-FRET kinase assay; avg; read-out: Mps1 avg (IC50 [mol/l])
Method in brief: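 Inhibition normalised between uninhibited reaction (0%) and enzyme-free wells (100%), using the blank-corrected TR-FRET 665/620 nm ratio after EDTA stop. Reaction: ~0.5 nM GST-Mps-1 full length, 10 μM ATP, 1 μM biotin-peptide, 60 min at 22 °C, after 15 min compound pre-binding, pH 7.7.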

Row | pIC50 | SMILES
1 | < 4.70 and 4.72 | CNS(=O)(=O)c1ccc(NC(=O)c2c(C)nsc2Nc2cncc(C(F)(F)F)n2)cc1 [Example 211, 3-methyl-N-[4-(methylsulfamoyl)phenyl]-5-{[6-(trifluoromethyl)pyrazin-2-yl]amino}-1,2-thiazole-4-carboxamide]
2 | < 4.70 | Cc1nsc(Nc2cc(C#N)ccn2)c1C(=O)Nc1ccc(NC(=O)OC(C)(C)C)cc1 [Example 177, tert-butyl {4-[({5-[(4-cyanopyridin-2-yl)amino]-3-methyl-1,2-thiazol-4-yl}carbonyl)amino]phenyl}carbamate]
3 | < 4.70 | Cc1nsc(Nc2ccc(C#N)cn2)c1C(=O)Nc1ccc(F)c(C(N)=O)c1 [Example 203, N-(3-carbamoyl-4-fluorophenyl)-5-[(5-cyanopyridin-2-yl)amino]-3-methyl-1,2-thiazole-4-carboxamide]
4 | 5.24 | Cc1nsc(Nc2cnc3ccccc3n2)c1C(=O)Nc1ccc(F)c(C(N)=O)c1 [Example 202, N-(3-carbamoyl-4-fluorophenyl)-3-methyl-5-(quinoxalin-2-ylamino)-1,2-thiazole-4-carboxamide]
5 | < 4.70 | Cc1nsc(Nc2cnc3ccccc3n2)c1C(=O)Nc1ccccc1S(C)(=O)=O [Example 188, 3-methyl-N-[2-(methylsulfonyl)phenyl]-5-(quinoxalin-2-ylamino)-1,2-thiazole-4-carboxamide]
6 | < 4.70 | Cc1nsc(Nc2cncc(C(F)(F)F)n2)c1C(=O)Nc1ccc(OC2CCN(C(C)C)CC2)nc1 [Example 218, N-{6-[(1-isopropylpiperidin-4-yl)oxy]pyridin-3-yl}-3-methyl-5-{[6-(trifluoromethyl)pyrazin-2-yl]amino}-1,2-thiazole-4-carboxamide]
7 | < 4.70 | CC(=O)Nc1cc(NC(=O)c2c(C)nsc2Nc2cnccn2)ccc1F [Example 205, N-(3-acetamido-4-fluorophenyl)-3-methyl-5-(pyrazin-2-ylamino)-1,2-thiazole-4-carboxamide]
8 | < 4.70 | Cc1nsc(Nc2cncc(C(F)(F)F)n2)c1C(=O)Nc1ccc(OCCNC(=O)OC(C)(C)C)c(F)c1 [Example 216, tert-butyl [2-(2-fluoro-4-{[(3-methyl-5-{[6-(trifluoromethyl)pyrazin-2-yl]amino}-1,2-thiazol-4-yl)carbonyl]amino}phenoxy)ethyl]carbamate]
9 | < 4.70 | CNS(=O)(=O)c1ccc(NC(=O)c2c(C)nsc2Nc2cc(C#N)ccn2)cc1 [Example 210, 5-[(4-cyanopyridin-2-yl)amino]-3-methyl-N-[4-(methylsulfamoyl)phenyl]-1,2-thiazole-4-carboxamide]
10 | < 4.70 | Cc1nsc(Nc2cncc(C(F)(F)F)n2)c1C(=O)Nc1ccc(OC2CCN(CCF)CC2)c(F)c1 [Example 223, N-(3-fluoro-4-{[1-(2-fluoroethyl)piperidin-4-yl]oxy}phenyl)-3-methyl-5-{[6-(trifluoromethyl)pyrazin-2-yl]amino}-1,2-thiazole-4-carboxamide]
11 | ≤ 4.70 | Cc1nsc(Nc2cnc3ccccc3n2)c1C(=O)Nc1ccc(OC2CCN(C(=O)OC(C)(C)C)CC2)nc1 [Example 18, tert-Butyl 4-{[5-({[3-methyl-5-(quinoxalin-2-ylamino)-1,2-thiazol-4-yl]carbonyl}-amino)pyridin-2-yl]oxy}piperidine-1-carboxylate]
12 | ≤ 4.70 | Cc1nsc(Nc2cnc3ccccc3n2)c1C(=O)Nc1ccc(OC2CCN(CC(F)F)CC2)nc1 [Example 20, N-(6-{[1-(2,2-difluoroethyl)piperidin-4-yl]oxy}pyridin-3-yl)-3-methyl-5-(quinoxalin-2-ylamino)-1,2-thiazole-4-carboxamide]
13 | 5.34 | Cc1nsc(Nc2cnc3ccccc3n2)c1C(=O)Nc1ccc(OCCC(=O)OC(C)(C)C)nc1 [Example 198, tert-butyl 3-{[5-({[3-methyl-5-(quinoxalin-2-ylamino)-1,2-thiazol-4-yl]carbonyl}amino)pyridin-2-yl]oxy}propanoate]
14 | < 4.70 | Cc1nsc(Nc2ccc(C#N)cn2)c1C(=O)Nc1cccc(C(=O)OC(C)(C)C)c1 [Example 240, tert-butyl 3-[({5-[(5-cyanopyridin-2-yl)amino]-3-methyl-1,2-thiazol-4-yl}carbonyl)amino]benzoate]
15 | ≤ 4.70 | Cc1nsc(Nc2cnc3ccccc3n2)c1C(=O)Nc1ccc(OC2CCNCC2)nc1 [Example 19, 3-Methyl-N-[6-(piperidin-4-yloxy)pyridin-3-yl]-5-(quinoxalin-2-ylamino)-1,2-thiazole-4-carboxamide]
16 | < 4.70 | Cc1nsc(Nc2cncc(C(F)(F)F)n2)c1C(=O)Nc1ccc(C(=O)OC(C)(C)C)cc1 [Example 193, tert-butyl tert-butyl 4-{[(3-methyl-5-{[6-(trifluoromethyl)pyrazin-2-yl]amino}-1,2-thiazol-4-yl)carbonyl]amino}benzoate]
17 | < 4.70 | Cc1nsc(Nc2cnc3ccccc3n2)c1C(=O)Nc1cccc(NC(=O)C(C)(C)C)c1 [Example 186, N-{3-[(2,2-dimethylpropanoyl)amino]phenyl}-3-methyl-5-(quinoxalin-2-ylamino)-1,2-thiazole-4-carboxamide]
18 | < 4.70 | Cc1nsc(Nc2cnc3ccccc3n2)c1C(=O)Nc1ccc(C(N)=O)c(F)c1 [Example 201, N-(4-carbamoyl-3-fluorophenyl)-3-methyl-5-(quinoxalin-2-ylamino)-1,2-thiazole-4-carboxamide]
19 | < 4.70 | Cc1nsc(Nc2cncc(C(F)(F)F)n2)c1C(=O)Nc1ccc(C(=O)NC2CCN(CC(F)F)CC2)cc1 [Example 225, N-N-(4-{[1-(2,2-difluoroethyl)piperidin-4-yl]carbamoyl}phenyl)-3-methyl-5-{[6-(trifluoromethyl)pyrazin-2-yl]amino}-1,2-thiazole-4-carboxamide]
20 | < 4.70 | Cc1nsc(Nc2cncc(C(F)(F)F)n2)c1C(=O)Nc1ccc(C(=O)NCCN2CCCC(F)(F)C2)cc1 [Example 214, N-(4-{[2-(3,3-difluoropiperidin-1-yl)ethyl]carbamoyl}phenyl)-3-methyl-5-{[6-(trifluoromethyl)pyrazin-2-yl]amino}-1,2-thiazole-4-carboxamide]
21 | < 4.70 | Cc1nsc(Nc2cnc(C(F)(F)F)cn2)c1C(=O)Nc1ccc(OCCN)c(F)c1 [Example 221, 3-N-[4-(2-aminoethoxy)-3-fluorophenyl]-3-methyl-5-{[5-(trifluoromethyl)pyrazin-2-yl]amino}-1,2-thiazole-4-carboxamide]
22 | < 4.70 and 4.85 | Cc1nsc(Nc2cnc3ccccc3n2)c1C(=O)Nc1ccc(NCCC(=O)OC(C)(C)C)nc1 [Example 236, tert-butyl N-[5-({[3-methyl-5-(quinoxalin-2-ylamino)-1,2-thiazol-4-yl]carbonyl}amino)pyridin-2-yl]-beta-alaninate]
23 | < 4.70 | CCN(CC)CCNC(=O)c1cccc(NC(=O)c2c(C)nsc2Nc2cc(C#N)ccn2)c1 [Example 174, 5-[(4-cyanopyridin-2-yl)amino]-N-(3-{[2-(diethylamino)ethyl]carbamoyl}phenyl)-3-methyl-1,2-thiazole-4-carboxamide]
24 | 4.92 | COc1ccc(NC(=O)c2c(C)nsc2Nc2cnc3ccccc3n2)c(CC#N)n1 [Example 235, N-[2-(cyanomethyl)-6-methoxypyridin-3-yl]-3-methyl-5-(quinoxalin-2-ylamino)-1,2-thiazole-4-carboxamide]
25 | < 4.70 | Cc1nsc(Nc2cncc(C(F)(F)F)n2)c1C(=O)Nc1ccc(OCCNC(=O)OC(C)(C)C)nc1 [Example 191, tert-butyl {2-[(5-{[(3-methyl-5-{[6-(trifluoromethyl)pyrazin-2-yl]amino}-1,2-thiazol-4-yl)carbonyl]amino}pyridin-2-yl)oxy]ethyl}carbamate]
26 | < 4.70 | Cc1nsc(Nc2cc(C#N)ccn2)c1C(=O)Nc1ccc(OCCC(=O)OC(C)(C)C)nc1 [Example 200, tert-butyl 3-({5-[({5-[(4-cyanopyridin-2-yl)amino]-3-methyl-1,2-thiazol-4-yl}carbonyl)amino]pyridin-2-yl}oxy)propanoate]
27 | < 4.70 | CCN(CC)CCNC(=O)c1cccc(NC(=O)c2c(C)nsc2Nc2cnccn2)c1 [Example 247, N-(3-{[2-(diethylamino)ethyl]carbamoyl}phenyl)-3-methyl-5-(pyrazin-2-ylamino)-1,2-thiazole-4-carboxamide]
28 | < 5.00 | Cc1nsc(Nc2cncc(C(F)(F)F)n2)c1C(=O)Nc1cccc(S(C)(=O)=O)c1 [Example 194, 3-methyl-N-[3-(methylsulfonyl)phenyl]-5-{[6-(trifluoromethyl)pyrazin-2-yl]amino}-1,2-thiazole-4-carboxamide]
